Legend:
ER = ER transcriptional activity on MMTV-ERE-LUC in HepG2 and HS578T cells; assay type: cell-based; conditions: data not shown
[1] = test system: PR-B (co-expressed with PR-A); assay: PR-A repression of PR-B mediated MMTV-LUC transcription (co-transfection); assay type: cell-based, human; conditions: for transcriptional repression: HeLa, FIG. 3B
Description: FIGS 3A-3B are a series of graphs showing CV-1 (FIG. 3A) or HeLa (FIG. 3B) cells that were transiently transfected with either 0.25 g of phPR-A or 0.25 g phPR-B alone, or 0.25 g phPR-B in the presence of increasing concentration of phPR-A together with […] of the MMTV-LUC reporter and […] of pCH110 as an internal control. […] The relative luciferase activity is calculated by dividing the normalized luciferase value at a given point by that obtained in the absence of transfected receptor or ligand. Data shown indicate the mean +/- average deviation from the mean of triplicate estimations;
Cells were seeded in 12-well, 96-well or 10 cm tissue culture plates. […] 20 μg of DNA/ml of transfection buffer were used in each transfection reaction. In this mix, the concentration of the luciferase plasmids and that of the internal control plasmid pCH110 (Pharmacia, Inc.), which contains the gene for the β-galactosidase enzyme, remained constant ([…] of each plasmid DNA), while the receptor plasmid concentration varied as indicated for each experiment. Different amounts of receptor parental plasmid, pSV2-neo (Dr. Bert O'Malley, Baylor College of Medicine, Houston, Tex.) was included to keep constant the total amount of the SV40 enhancer vectors. pGEM4 plasmid DNA (Promega Biotech, Madison, Wis.) was added to balance the total DNA concentration to 20 g/reaction. For the 96-well plate experiments, transfections were performed on a Biomek 1000 Automated Laboratory Workstation (Beckman Instruments, Fullerton, Calif.).
Cells were seeded 24 hours prior to transfection in the fiat-bottom tissue culture plates ([…]) in phenol red-free DMEM containing 10% FCS. […] Using calcium phosphate co-precipitation, DNA solution was added dropwise with vortexing into an equal volume of 2X HBS pH 6.9 (280 mM NaCl. 50 mM HEPES, 1.5 mM Na2 HPO4) and precipitates were allowed to form for 20 minutes. Cells were transfected ( […] of DNA mix/well) for 6 hours and then washed with phosphate-bufferedsaline (PBS) to remove the precipitate. Cells were incubated for an additional 24 hours in phenol red-free medium containing 10% charcoal-treated FCS, with or without hormones as indicated in the text. Cell extracts were prepared as described by Berger et al., Supra, and assayed for luciferase and β-galactosidase activities. All determinations were performed in triplicates in at least two independent experiments, and were normalized for transfection efficiency by using β-galactosidase as an internal control.

human vitamin D receptor = assay: VDR transcriptional activity on VDRE2 tk-LUC with PR-A, CV-1 cells; assay type: cell-based; conditions: absence or presence of progesterone, FIG. 7
Source text: The data shown represent the mean value +/- the average deviation from the mean of triplicate determinations;
To analyze the specificity of PR-A action, we examined its ability to affect other receptor-dependent transcription systems. For this purpose, phPR-A was cotransfected with a vector expressing the vitamin D receptor (VDR) and assayed on a VDRE2 tk-LUC reporter (available from Dr. J. Wesley Pike, Ligand Pharmaceuticals, Inc.).

Structure (SMILES)	anti-estrogenic activity (ER; HS578T cells)	anti-estrogenic activity (ER; HepG2 cells)	recovery of PR-B mediated transcription ([1]; CV-1, PR-A/PR-B DNA ratio 1:5) [%]	recovery of PR-B mediated transcription ([1]; CV-1, PR-A/PR-B DNA ratio 1:25) [%]	inhibition of MMTV-LUC transcriptional activity ([1]; CV-1, equimolar concentrations of PR-A and PR-B)	transcriptional repression ([1]; 1:1 PR-A/PR-B DNA ratio) [%]	transcriptional repression ([1]; 1:5 PR-A/PR-B DNA ratio) [%]	transcriptional repression ([1]; 1:25 PR-A/PR-B DNA ratio) [%]	effect of coexpression of PR-A and PR-B on MMTV transcription ([1]; HepG2, data not shown)	IC50 ([1]; read-out: progesterone concentration required for half maximal inhibition, CV-1, PR-A mediated repression of PR-B, MMTV) [nM]	effect of PR-A co-expression on hormone-dependent transactivation by VDR (human vitamin D receptor)
CC#C[C@]1(O)CC[C@H]2[C@@H]3CCC4=CC(=O)CCC4=C3[C@@H](c3ccc(C(C)=O)cc3)C[C@@]21C [ZK112993]	both anti-progestins functioned as anti-estrogens	neither anti-progestin exhibited any anti-estrogenic activity	–	–	–	–	–	–	–	–	–
CC(=O)[C@H]1CC[C@H]2[C@@H]3CCC4=CC(=O)CC[C@]4(C)[C@H]3CC[C@]12C [progesterone]	–	–	[…]	[…]	[…]	[…]	[…]	[…]	[…]	[…]	not substantially affected

Reference: patent US5506102A (priority 1993, dated 1996)
